How the values were obtained:
[1] = biological target: T1, human sphingosine-1-phosphate receptor 1 (S1P1) (Homo sapiens (Human), UniProt P21453); experiment: Inhibition of cAMP production (HTRF cAMP HiRange), S1P1 CHO-K1 cells; type: cell-based; settings: for Emax: CHO-K1, read-out: hS1P1 cAMP SPAN; for hS1P1 cAMP pEC50: inhibition of cAMP production, S1P1 CHO-K1 cells
Method in brief: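 CHO-K1 cells stably co-expressing human S1P1 (C-terminal Prolink tag) and EA-β-arrestin2 were grown in AssayComplete Media 6 at 37° C. and 5% CO2, plated, and incubated overnight. Agonist-driven inhibition of intracellular cAMP was read by TR-FRET with the HTRF cAMP HiRange kit on a PheraStar reader. Potency is pEC50, and efficacy (SPAN) is normalized to fingolimod.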
Target sequence in this assay (P21453 whole entry, looked up): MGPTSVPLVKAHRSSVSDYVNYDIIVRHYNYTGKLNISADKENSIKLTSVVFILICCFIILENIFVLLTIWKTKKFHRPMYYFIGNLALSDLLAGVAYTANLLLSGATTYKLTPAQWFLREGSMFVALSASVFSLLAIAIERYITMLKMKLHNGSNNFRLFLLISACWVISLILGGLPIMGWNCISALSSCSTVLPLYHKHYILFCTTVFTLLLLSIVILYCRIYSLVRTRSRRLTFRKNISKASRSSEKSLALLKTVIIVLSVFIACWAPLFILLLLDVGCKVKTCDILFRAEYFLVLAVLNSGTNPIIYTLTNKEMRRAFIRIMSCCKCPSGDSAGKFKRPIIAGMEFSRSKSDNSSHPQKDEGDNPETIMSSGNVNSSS

[2] = biological target: T1, human sphingosine-1-phosphate receptor 1 (S1P1); experiment: β-Arrestin2 recruitment assay (PathHunter), S1P1 CHO-K1 cells; type: cell-based; settings: for Emax: CHO-K1, read-out: hS1P1 B-arrestin2 SPAN; for hS1P1 B-arrestin2 pEC50: β-arrestin2 recruitment, S1P1 CHO-K1 cells
Method in brief: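 Enzyme-fragment complementation read-out: agonist-driven β-arrestin2 binding to ProLink-tagged human S1P1 in stable CHO-K1 cells restores β-galactosidase, measured 1 h at room temperature after a 60 min 37° C. compound incubation. Potency as pEC50, efficacy relative to fingolimod (SPAN).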
Target sequence in this assay (P21453 whole entry, looked up): as above
Target sequence in this assay (P32121 whole entry partner, looked up): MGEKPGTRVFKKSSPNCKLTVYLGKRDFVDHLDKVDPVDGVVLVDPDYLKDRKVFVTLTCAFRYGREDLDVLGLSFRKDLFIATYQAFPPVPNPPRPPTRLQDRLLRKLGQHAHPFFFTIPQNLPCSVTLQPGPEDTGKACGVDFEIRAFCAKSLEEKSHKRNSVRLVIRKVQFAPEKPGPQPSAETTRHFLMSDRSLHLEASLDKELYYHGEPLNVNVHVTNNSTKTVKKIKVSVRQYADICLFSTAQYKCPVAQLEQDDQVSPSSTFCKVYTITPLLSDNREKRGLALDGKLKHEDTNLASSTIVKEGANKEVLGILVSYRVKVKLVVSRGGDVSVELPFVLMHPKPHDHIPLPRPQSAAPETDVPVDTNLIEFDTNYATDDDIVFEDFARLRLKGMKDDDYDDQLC

[3] = efficacy (SPAN) normalized to fingolimod

| Compound | Emax [1, 3] [%] | hS1P1 cAMP pEC50 [1] | Emax [2, 3] [%] | hS1P1 B-arrestin2 pEC50 [2] | hS1P1 cAMP SPAN [1, 3] | hS1P1 B-arrestin2 SPAN [2, 3] |
| --- | --- | --- | --- | --- | --- | --- |
| Cc1ccc(-c2nc(-c3ccc4c(c3)nnn4C(C)C)no2)cn1 [Compound 119, 3-(1-isopropyl-1H-benzo[d][1,2,3]triazol-5-yl)-5-(6-methylpyridin-3-yl)-1,2,4-oxadiazole] | < 75 | <6.5 | < 75 | <5 | – | – |
| COc1cccc(OC)c1-c1noc(-c2ccc3c(c2)nnn3C(C)C)n1 [Compound 251, 3-(2,6-dimethoxyphenyl)-5-(1-isopropylbenzotriazol-5-yl)-1,2,4-oxadiazole] | < 75 | <6.5 | < 75 | <5 | – | – |
| COc1cc(-c2noc(-c3ccc4c(c3)nnn4C3CC3)n2)ccn1 [Compound 155, 1-cyclopropyl-5-[3-(2-methoxypyridin-4-yl)-1,2,4-oxadiazol-5-yl]-1H-1,2,3-benzotriazole] | – | <6.5 | – | <5 | – | – |
| CC(C)n1ccc2cc(-c3noc(-c4cccc(F)c4)n3)ccc21 [Compound 394, 5-(3-fluorophenyl)-3-(1-isopropyl-1H-indol-5-yl)-1,2,4-oxadiazole] | – | <6.5 | – | >5 | – | – |
| CC(C)(CO)Cn1nnc2cc(-c3noc(-c4ccccc4Cl)n3)ccc21 [Compound 526, 3-(5-(5-(2-chlorophenyl)-1,2,4-oxadiazol-3-yl)-1H-benzo[d][1,2,3]triazol-1-yl)-2,2-dimethylpropan-1-ol] | – | <6.5 | – | <5 | – | – |
| Cc1cccc2nc(-c3ccc4c(c3)nnn4CC(C)C)oc12 [Compound 449, 2-(1-isobutyl-1H-benzo[d][1,2,3]triazol-5-yl)-7-methylbenzo[d]oxazole] | – | <6.5 | – | <5 | – | – |
| CNc1ccccc1-c1coc(-c2ccc3c(c2)nnn3C(C)C)n1 [Compound 587, N-methyl-2-{2-[1-(propan-2-yl)-1H-1,2,3-benzotriazol-5-yl]-1,3-oxazol-4-yl}aniline] | < 75 | <6.5 | < 75 | <5 | – | – |
| Cc1cccc2oc(-c3ccc4c(c3)nnn4C(C)C)nc12 [Compound 418, 2-(1-isopropyl-1H-benzo[d][1,2,3]triazol-5-yl)-4-methylbenzo[d]oxazole] | > 75 | >6.5 | > 75 | >5 | – | – |
| Cc1ccccc1-c1cc(-c2ccc3c(c2)nnn3C(C)C)c[nH]1 [Compound 601, 5-[5-(2-methylphenyl)-1H-pyrrol-3-yl]-1-(propan-2-yl)-1H-1,2,3-benzotriazole] | – | <6.5 | – | >5 | – | – |
| CC(C)n1nnc2cc(-c3nc4c(Br)cccc4o3)ccc21 [Compound 428, 4-bromo-2-(1-isopropylbenzotriazol-5-yl)-1,3-benzoxazole] | > 75 | <6.5 | > 75 | <5 | – | – |
| Cc1ccccc1-c1nc(-c2ccc3c(c2)nnn3C2CCCC2)no1 [Compound 162, 3-(1-cyclopentyl-1H-benzo[d][1,2,3]triazol-5-yl)-5-(o-tolyl)-1,2,4-oxadiazole] | – | <6.5 | – | >5 | – | – |
| CCC1(CC)CC(=O)c2cc(-c3nc(-c4ccc5[nH]cnc5c4)no3)ccc2O1 [Compound 211, 6-(3-(1H-benzo[d]imidazol-5-yl)-1,2,4-oxadiazol-5-yl)-2,2-diethylchroman-4-one] | < 75 | <6.5 | > 75 | >5 | – | – |
| N#Cc1cc(-c2nc(-c3ccc4c(c3)CCC(=O)N4)no2)ccc1NCC1CC1 [Compound 302, 2-((cyclopropylmethyl)amino)-5-(3-(2-oxo-1,2,3,4-tetrahydroquinolin-6-yl)-1,2,4-oxadiazol-5-yl)benzonitrile] | > 75 | >6.5 | > 75 | >5 | – | – |
| CC(C)(O)Cn1nnc2cc(-c3nc(-c4ccc5nc[nH]c5c4)no3)ccc21 [Compound 501, 1-{5-[3-(1H-1,3-benzodiazol-6-yl)-1,2,4-oxadiazol-5-yl]-1H-1,2,3-benzotriazol-1-yl}-2-methylpropan-2-ol] | < 75 | <6.5 | > 75 | <5 | – | – |
| COc1cc(NC(C)=O)ccc1-c1noc(-c2ccc3c(c2)nnn3C(C)C)n1 [Compound 532, N-(3-methoxy-4-{5-[1-(propan-2-yl)-1H-1,2,3-benzotriazol-5-yl]-1,2,4-oxadiazol-3-yl}phenyl)acetamide] | > 75 | >6.5 | < 75 | >5 | – | – |
| Cc1nccnc1-c1nc(-c2ccc3c(c2)nnn3C(C)C)no1 [Compound 44, 3-(1-isopropyl-1H-benzo[d][1,2,3]triazol-5-yl)-5-(3-methylpyrazin-2-yl)-1,2,4-oxadiazole] | – | <6.5 | – | <5 | – | – |
| COc1ccccc1-c1noc(-c2cnc3c(c2)nnn3C(C)C)n1 [Compound 383, 3-(2-methoxyphenyl)-5-[3-(propan-2-yl)-3H-[1,2,3]triazolo[4,5-b]pyridin-6-yl]-1,2,4-oxadiazole] | – | >6.5 | – | >5 | – | – |
| CC(C)n1ccc2cc(-c3noc(-c4ccccc4C(F)(F)F)n3)ccc21 [Compound 390, 3-(1-isopropyl-1H-indol-5-yl)-5-(2-(trifluoromethyl)phenyl)-1,2,4-oxadiazole] | – | >6.5 | – | >5 | – | – |
| COc1ccccc1-c1nnc(-c2ccc3[nH]oc(=O)c3c2)o1 [Compound 339, 5-[5-(2-methoxyphenyl)-1,3,4-oxadiazol-2-yl]-1,3-dihydro-2,1-benzoxazol-3-one] | – | <6.5 | – | <5 | – | – |
| 2-(5-(5-(2- chlorophenyl)-1,2,4- oxadiazol-3-yl)-1H- benzo[d][1,2,3]triazol- 1-yl)-2-methylpropan- 1-ol [Compound 618] | – | <6.5 | – | >5 | <75 | <75 |
| Cc1cccc(C)c1-c1noc(-c2ccc3c(c2)nnn3C(C)C)n1 [Compound 243, 3-(2,6-dimethylphenyl)-5-(1-isopropyl-1H-benzo[d][1,2,3]triazol-5-yl)-1,2,4-oxadiazole] | > 75 | <6.5 | > 75 | <5 | – | – |
| CCC1(CC)CC(=O)c2cc(-c3nc(-c4ccncc4C(F)(F)F)no3)ccc2O1 [Compound 313, 2,2-diethyl-6-(3-(3-(trifluoromethyl)pyridin-4-yl)-1,2,4-oxadiazol-5-yl)chroman-4-one] | > 75 | >6.5 | > 75 | <5 | – | – |
| Brc1ccccc1-c1nc(-c2ccc3c(c2)nnn3Cc2ccccc2)no1 [Compound 52, 3-(1-benzyl-1H-benzo[d][1,2,3]triazol-5-yl)-5-(2-bromophenyl)-1,2,4-oxadiazole] | – | <6.5 | – | <5 | – | – |
| CCC1(CC)CC(=O)c2cc(-c3nc(-c4ccc5ncccc5c4)no3)ccc2O1 [Compound 521, 2,2-diethyl-6-(3-(quinolin-6-yl)-1,2,4-oxadiazol-5-yl)chroman-4-one] | – | <6.5 | – | <5 | – | – |
